The test system of the experiment is Arachidonoylethanolamide Transport (AEAT) in U937 cells. In words: Cellular uptake of [3H]-AEA (inhibition of arachidonoylethanolamide transport, AEAT). In kind it is cell-based. The following applies: Homo sapiens, U-937, 100 nM AEA, 15 min pre-incubation, 15 min uptake at 37° C. The method, then:
C. Cellular Uptake of [^3H]-AEA
Human lymphoma U937 cells were grown in RPMI 1640 medium (Invitrogen, Basel, Switzerland) supplemented with 10% fetal bovine serum, […] fungizone (amphotericin B), 100 units/ml penicillin, 100 µg/ml streptomycin, and 2 mM L-glutamine (all from Invitrogen) and selected for the cellular AEA uptake assay. 2.5×10^6 cells were collected and suspended in 250 μl of RPMI 1640 medium (Invitrogen, Basel, Switzerland) at 37° C. using glass silanized vials. Cells were pre-incubated 15 min at 37° C. in presence of test compounds in a concentration range of 10^−11−10^−5 M or in presence of the same amount (5 μl) of vehicle control (DMSO). Then a mixture of 0.5 nM [^3H]-AEA (60 Ci/mmol) (American Radiolabeled Chemicals, Inc., San Louis, Mo., US) and 99.5 nM of nonradioactive AEA (Tocris Cookson Ltd., Bristol, UK) resulting in a final concentration of 100 nM AEA was added and samples were incubated at 37° C. for another 15 minutes. […] Radioactivity was measured using a Perkin Elmer 1450 Microbeta TRILUX liquid scintillation counter. Results were expressed as % of AEA uptake versus cells treated with solvent and the EC50 and IC50 values were calculated from the sigmoidal curves, which were generated using the GraphPad Prism 5.0 (GraphPad Software, San Diego, Calif., US).

As usually defined, the EC50 is the concentration that produces a half-maximal response. A higher EC50 goes with weaker potency.

With `Cn1c(=O)oc2ccc(NC(=O)/C=C/C=C/CCc3ccccc3)cc21` [Example 10], the EC50 is 112 nM.

In the case of `CCCCCCC/C=C/C=C/CNC(=O)c1ccc2oc(=O)[nH]c2c1` [Example 4], the EC50 stood at 146 nM.
